Patent publication US12649751B2 (Arcus Biosciences, Inc., priority 2022, dated 2026)
Where two headings read alike, the source gives them in different places.

How the values were obtained:
HPK1 = HPK1 (Homo sapiens, UniProt Q92918); assay: HPK1 Biochemical Assay (ADP-Glo luminescence; low ATP 10 μM or high ATP 200 μM); settings: HPK1 ADP-Glo assay
[1] = tested on: p-SLP-76 (Ser376) in Jurkat cells; assay: pSLP76 Cellular Assay (AlphaLISA SureFire Ultra p-SLP-76 (Ser376), anti-CD3 activated Jurkat cells); type: cell-based; settings: Homo sapiens; pSLP76 (Ser376) AlphaLISA, anti-CD3 activated Jurkat cells; read-out: Cellular Potency
Summary of the method: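 Read-out is AlphaLISA p-SLP-76 (Ser376) signal at 570 nm in Jurkat lysates, with IC50 fitted by 4-parameter logistic. Cells were starved overnight, exposed 1 h at 37 °C to 22 twofold compound dilutions in HBSS, then activated 45 min with anti-CD3 (0.025 mg/ml stock added).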

[2] = high ATP (200 μM ATP, 5 nM HPK1), read-out: Biochemical Potency (high ATP)

Chain of HPK1 (Q92918 whole entry, species assumed): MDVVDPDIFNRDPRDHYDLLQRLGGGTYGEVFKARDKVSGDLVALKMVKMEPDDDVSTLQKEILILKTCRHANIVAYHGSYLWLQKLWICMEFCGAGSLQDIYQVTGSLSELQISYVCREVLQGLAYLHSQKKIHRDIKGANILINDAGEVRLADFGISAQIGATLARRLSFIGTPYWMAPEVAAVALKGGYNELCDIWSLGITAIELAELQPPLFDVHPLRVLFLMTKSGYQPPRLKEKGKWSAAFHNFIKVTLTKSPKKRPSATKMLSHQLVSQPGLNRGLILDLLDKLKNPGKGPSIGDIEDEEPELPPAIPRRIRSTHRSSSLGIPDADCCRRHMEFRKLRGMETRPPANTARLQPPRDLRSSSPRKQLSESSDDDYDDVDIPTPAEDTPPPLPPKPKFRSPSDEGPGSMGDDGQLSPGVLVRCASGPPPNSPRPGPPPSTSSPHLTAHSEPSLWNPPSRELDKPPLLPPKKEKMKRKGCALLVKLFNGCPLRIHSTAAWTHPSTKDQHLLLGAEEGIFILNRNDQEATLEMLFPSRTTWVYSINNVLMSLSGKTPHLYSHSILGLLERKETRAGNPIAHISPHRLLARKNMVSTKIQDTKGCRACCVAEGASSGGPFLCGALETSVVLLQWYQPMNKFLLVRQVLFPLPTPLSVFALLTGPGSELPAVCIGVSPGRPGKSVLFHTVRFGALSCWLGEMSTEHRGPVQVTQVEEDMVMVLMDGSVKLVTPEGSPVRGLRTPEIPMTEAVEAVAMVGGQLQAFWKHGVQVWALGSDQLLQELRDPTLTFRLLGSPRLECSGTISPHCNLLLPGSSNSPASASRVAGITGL

Structure (SMILES) | IC50 (HPK1; [2]) | IC50 [1] | IC50 (HPK1; low ATP (10 μM ATP, 2 nM HPK1), read-out: Biochemical Potency (low ATP))
Cc1cc(Nc2cc3nc(-c4cnn5ccccc45)sc3cn2)nc(N2C[C@@H]3C[C@H]2CN3C)n1 [Example 386] | < 100 nM | 1000 to 5000 nM | 
CCC(O)(CC)c1cc(-c2nc3cc(Nc4cc(C)nc(N5C[C@@H]6C[C@H]5CN6C)n4)ncc3s2)ccn1 [Example 387] | < 100 nM | 100 to 1000 nM | 
Cc1cc(Nc2cc3nc(-c4ncco4)sc3cn2)nc(N2C[C@@H]3C[C@H]2CN3C)n1 [Example 388] | < 100 nM | 100 to 1000 nM | 
CC(=O)N1CCc2c(cccc2-c2nc3cc(Nc4cc(C)nc(N5C[C@@H]6C[C@H]5CN6C)n4)ncc3s2)C1 [Example 389] | 100 to 1000 nM | 1000 to 5000 nM | 
Cc1cc(Nc2cc3nc(-c4cccc(OC(F)F)c4)sc3cn2)nc(N2C[C@@H]3C[C@H]2CN3C)n1 [Example 390] | < 100 nM | 100 to 1000 nM | 
Cc1cc(Nc2cc3nc(-c4ccc(=O)n(C)c4)sc3cn2)nc(N2C[C@@H]3C[C@H]2CN3C)n1 [Example 391] | 100 to 1000 nM | 1000 to 5000 nM | 
Cc1cc(Nc2cc3nc(-c4cccc(NC(=O)C5CC5)c4)sc3cn2)nc(N2C[C@@H]3C[C@H]2CN3C)n1 [Example 392] | < 100 nM | 100 to 1000 nM | 
Cc1cc(Nc2cc3nc(-c4cccc(C5(C(=O)N(C)C)CC5)c4)sc3cn2)nc(N2C[C@@H]3C[C@H]2CN3C)n1 [Example 393] | < 100 nM | 100 to 1000 nM | 
Cc1cc(Nc2cc3nc(-c4cccc(C(C)(C)C(=O)N(C)C)c4)sc3cn2)nc(N2C[C@@H]3C[C@H]2CN3C)n1 [Example 394] | < 100 nM | 100 to 1000 nM | 
Cc1cc(Nc2cc3nc(-c4cccc(CC(=O)N(C)C)c4)sc3cn2)nc(N2C[C@@H]3C[C@H]2CN3C)n1 [Example 395] | 100 to 1000 nM | 100 to 1000 nM | 
CC(=O)N(C)c1cccc(-c2nc3cc(Nc4cc(C)nc(N5C[C@@H]6C[C@H]5CN6C)n4)ncc3s2)c1 [Example 396] | < 100 nM | 100 to 1000 nM | 
Cc1cc(Nc2cc3nc(-c4ccnc(C5(O)CCCC5)c4)sc3cn2)nc(N2C[C@@H]3C[C@H]2CN3C)n1 [Example 397] | < 100 nM | < 100 nM | 
Cc1cc(Nc2cc3nc(-c4cccc5c4CCN(C)C5=O)sc3cn2)nc(N2C[C@@H]3C[C@H]2CN3C)n1 [Example 398] | 100 to 1000 nM | 1000 to 5000 nM | 
Cc1cc(Nc2cc3nc(-c4cccc(C(=O)N(C)C)c4F)sc3cn2)nc(N2C[C@@H]3C[C@H]2CN3C)n1 [Example 399] | < 100 nM | 100 to 1000 nM | 
Cc1cc(Nc2cc3nc(-c4cccc5c4CN(C)C5=O)sc3cn2)nc(N2C[C@@H]3C[C@H]2CN3C)n1 [Example 400] | < 100 nM | 5000 to 25000 nM | 
Cc1cc(Nc2cc3nc(-c4cccc(C(C)(C)O)c4F)sc3cn2)nc(N2C[C@@H]3C[C@H]2CN3C)n1 [Example 401] | < 100 nM | 100 to 1000 nM | 
Cc1cc(Nc2cc3nc(-c4cccc(C5(O)CCC5)c4)sc3cn2)nc(N2C[C@@H]3C[C@H]2CN3C)n1 [Example 402] | < 100 nM | 100 to 1000 nM | 
Cc1cc(Nc2cc3nc(-c4cccc(C5(O)CCCC5)c4)sc3cn2)nc(N2C[C@@H]3C[C@H]2CN3C)n1 [Example 403] | < 100 nM | 100 to 1000 nM | 
Cc1cc(Nc2cc3nc(-c4cccc(C5CCOCC5)c4)sc3cn2)nc(N2C[C@@H]3C[C@H]2CN3C)n1 [Example 404] | < 100 nM | 1000 to 5000 nM | 
CN1C[C@@H]2C[C@H]1CN2c1nccc(Nc2cc3nc(-c4cccc(S(=O)(=O)C5CC5)c4)sc3cn2)n1 [Example 405] | < 100 nM | 100 to 1000 nM | 
Cc1cc(Nc2cc3nc(-c4ccnc(C(C)(C)O)c4)sc3cn2)nc(N2C[C@@H]3C[C@H]2CN3C)n1 [Example 406] | < 100 nM | 100 to 1000 nM | < 100 nM
